Among the data in patent US20090069317A1, “Insecticidal Methods Using 3-Amino-1,2-Benzisothiazole Derivatives” (BASF SE, priority 2005, published 2009) are mortality values, retold here.

Experiment [1] relates to Green Peach Aphid (Myzus Persicae). Kind of experiment: Green peach aphid (Myzus persicae) pepper leaf dip test, mortality. The format is in vivo. The note with it: foliar, 120 h, pepper plant leaves dipped, aphid mortality after 5 days, read-out: mortality in comparison with untreated controls. The text has this:
B.2 Green Peach Aphid (Myzus Persicae)
(§1) The active compounds were formulated in 50:50 acetone:water and 100 ppm Kinetic® surfactant.
Pepper plants in the 2nd leaf-pair stage (variety ‘California Wonder’) were infested with approximately 40 laboratory-reared aphids by placing infested leaf sections on top of the test plants. The leaf sections were removed after 24 hr. The leaves of the intact plants were dipped into gradient solutions of the test compound and allowed to dry. Test plants were maintained under fluorescent light (24 hour photoperiod) at about 25° C. and 20-40% relative humidity. Aphid mortality on the treated plants, relative to mortality on check plants, was determined after 5 days.

Experiment [2] concerns Cotton Aphid (Aphis gossypii). Kind of experiment: Cotton aphid (Aphis gossypii) cotyledon dip test, mortality. The format is in vivo. The conditions noted are these: 120 h, cotton cotyledons dipped, mortality counts after 5 days, read-out: mortality in comparison with untreated controls.
Description: B.1 Cotton Aphid (Aphis gossypii)
as §1
Cotton plants at the cotyledon stage (one plant per pot) were infested by placing a heavily infested leaf from the main colony on top of each cotyledon. The aphids were allowed to transfer to the host plant overnight, and the leaf used to transfer the aphids was removed. The cotyledons were dipped in the test solution and allowed to dry. After 5 days, mortality counts were made.

SMILES strings stand for the structures. Bounds are passed on as bounds.

As to `CN(C)C1=NS(=O)(=O)c2cccc(Cl)c21` [Compound 2], the mortality at 300 ppm in experiment [1] and in experiment [2] was greater than 86% in each case.
With `CCCN(C)C1=NS(=O)(=O)c2cccc(Cl)c21` [Compound 19], the mortality at 300 ppm in experiment [1] and in experiment [2] was greater than 86% throughout.
Turning to `CCN(CC)C1=NS(=O)(=O)c2cccc(OC)c21` [Compound 27], the mortality at 300 ppm in experiment [1] and in experiment [2] was greater than 86% in each case.
Consider `CCN(C1=NS(=O)(=O)c2cccc(OC)c21)C(C)C` [Compound 28], for which the mortality at 300 ppm in experiment [1] and in experiment [2] was greater than 86% in each case.
On to `CCN(C)C1=NS(=O)(=O)c2cccc(OC)c21` [Compound 30, Ethyl-(4-methoxy-1,1-dioxo-1H-1λ^6-benzo[d]isothiazol-3-yl)-methyl-amine], for which the mortality at 300 ppm in experiment [1] and in experiment [2] was greater than 86% throughout.
For the compound `CCN(CC)C1=NS(=O)(=O)c2cccc(OC(F)F)c21` [Compound 31, (4-Difluoromethoxy-1,1-dioxo-1H-1λ^6-benzo[d]isothiazol-3-yl)-diethyl-amine], the mortality at 300 ppm in experiment [1] and in experiment [2] was greater than 86% in each case.
Take `CN(C)C1=NS(=O)(=O)c2cccc(OC(F)F)c21` [Compound 32]: the mortality at 300 ppm in experiment [1] and in experiment [2] was greater than 86% in each case.
In the case of `CCN(C1=NS(=O)(=O)c2cccc(OC(F)F)c21)C(C)C` [Compound 33], the mortality at 300 ppm in experiment [1] and in experiment [2] was greater than 86% in each case.
In the case of `CCN(C)C1=NS(=O)(=O)c2cccc(OC(F)F)c21` [Compound 34], the mortality at 300 ppm in experiment [1] and in experiment [2] was greater than 86% throughout.
Turning to `CN(CC#N)C1=NS(=O)(=O)c2cccc(OC(F)F)c21` [Compound 37], the mortality at 300 ppm in experiment [1] and in experiment [2] was greater than 86% each time.
Take `CCCN(C)C1=NS(=O)(=O)c2cccc(OC(F)F)c21` [Compound 38]: the mortality at 300 ppm in experiment [1] and in experiment [2] was greater than 86% throughout.
`C#CCN(C)C1=NS(=O)(=O)c2cccc(OC(F)F)c21` [Compound 39]: the mortality at 300 ppm in experiment [1] and in experiment [2] was greater than 86% in each case.
`C=CCN(C)C1=NS(=O)(=O)c2cccc(OC(F)F)c21` [Compound 40]: the mortality at 300 ppm in experiment [1] and in experiment [2] was greater than 86% in each case.
`CC(C)N(C)C1=NS(=O)(=O)c2cccc(OC(F)F)c21` [Compound 41]: the mortality at 300 ppm in experiment [1] and in experiment [2] was greater than 86% in each case.
Regarding `CC(C)CN(C)C1=NS(=O)(=O)c2cccc(OC(F)F)c21` [Compound 42], the mortality at 300 ppm in experiment [1] and in experiment [2] was greater than 86% in each case.
Consider `COc1c(Br)ccc2snc(N(C)C)c12` [Compound 48, (5-Bromo-4-methoxy-benzo[d]isothiazol-3-yl)-dimethyl-amine], for which the mortality at 300 ppm in experiment [1] and in experiment [2] was greater than 86% in each case.
Turning to `CCN(C)c1nsc2cccc(Cl)c12` [Compound 51], the mortality at 300 ppm in experiment [1] and in experiment [2] was greater than 86% in each case.
Regarding `CN(CC(F)(F)F)C1=NS(=O)(=O)c2cccc(OC(F)F)c21` [Compound 53], the mortality at 300 ppm in experiment [1] and in experiment [2] was greater than 86% each time.
Consider `COC(C)CN(C)c1nsc2cccc(Cl)c12` (centres unmarked) [Compound 57], for which the mortality at 300 ppm in experiment [1] and in experiment [2] was greater than 86% each time.
Regarding `CCN(CC)c1nsc2cccc(Cl)c12` [Compound 58], the mortality at 300 ppm in experiment [1] and in experiment [2] was greater than 86% throughout.
For `CCCN(CC1CC1)C1=NS(=O)(=O)c2cccc(F)c21` [Compound 62], the mortality at 300 ppm in experiment [1] and in experiment [2] was greater than 86% in each case.
`CCN(C)C1=NS(=O)(=O)c2cccc(F)c21` [Compound 64]: the mortality at 300 ppm in experiment [1] and in experiment [2] was greater than 86% throughout.
Consider `CC(C)N(C)C1=NS(=O)(=O)c2cccc(F)c21` [Compound 73], for which the mortality at 300 ppm in experiment [1] and in experiment [2] was greater than 86% in each case.
Consider `CCN(CC)c1n[s+]([O-])c2cccc(Cl)c12` (centres unmarked) [Compound 74], for which the mortality at 300 ppm in experiment [1] and in experiment [2] was greater than 86% throughout.
With `CCN(CC)c1nsc2cccc(OC)c12` [Compound 76], the mortality at 300 ppm in experiment [1] and in experiment [2] was greater than 86% each time.
As for `CN(C)c1n[s+]([O-])c2cccc(Cl)c12` (centres unmarked) [Compound 78], the mortality at 300 ppm in experiment [1] and in experiment [2] was greater than 86% each time.
Take `CCN(C)c1nsc2cccc(OC(F)F)c12` [Compound 80]: the mortality at 300 ppm in experiment [1] and in experiment [2] was greater than 86% throughout.
`CCN(C)c1nsc2cccc(OC)c12` [Compound 81]: the mortality at 300 ppm in experiment [1] and in experiment [2] was greater than 86% each time.
Take `COc1cccc2snc(N(C)C(C)C)c12` [Compound 82]: the mortality at 300 ppm in experiment [1] and in experiment [2] was greater than 86% each time.
Take `COc1cccc2snc(N(C)CC(C)C)c12` [Compound 83]: the mortality at 300 ppm in experiment [1] and in experiment [2] was greater than 86% throughout.
As to `CCN(C)c1n[s+]([O-])c2cccc(OC)c12` (centres unmarked) [Compound 85], the mortality at 300 ppm in experiment [1] and in experiment [2] was greater than 86% in each case.
As for `CC(C)N(C)c1nsc2cccc(Cl)c12` [Compound 86], the mortality at 300 ppm in experiment [1] and in experiment [2] was greater than 86% each time.
`CCCN(C)c1nsc2cccc(Cl)c12` [Compound 87]: the mortality at 300 ppm in experiment [1] and in experiment [2] was greater than 86% each time.
For the compound `CCN(C)c1n[s+]([O-])c2cccc(Cl)c12` (centres unmarked) [Compound 88], the mortality at 300 ppm in experiment [1] and in experiment [2] was greater than 86% throughout.
Take `CCN(CC)C1=NS(=O)(=O)c2c(F)ccc(OC)c21` [Compound 89]: the mortality at 300 ppm in experiment [1] and in experiment [2] was greater than 86% each time.
With `COc1ccc(F)c2c1C(N(C)C)=NS2(=O)=O` [Compound 90], the mortality at 300 ppm in experiment [2] is greater than 86%.
As for `CCN(C)C1=NS(=O)(=O)c2c(F)ccc(OC)c21` [Compound 91], the mortality at 300 ppm in experiment [1] and in experiment [2] was greater than 86% each time.
On to `COc1cccc2snc(N(C)Cc3ccccc3)c12` [Compound 92], for which the mortality at 300 ppm in experiment [1] and in experiment [2] was greater than 86% each time.
Take `CN(c1nsc2cccc(Cl)c12)C1CCCC1` [Compound 93]: the mortality at 300 ppm in experiment [1] and in experiment [2] was greater than 86% in each case.
As for `COc1cccc2c1c(N(C)C)n[s+]2[O-]` (centres unmarked) [Compound 94], the mortality at 300 ppm in experiment [1] and in experiment [2] was greater than 86% in each case.
With `CCN(CC)c1n[s+]([O-])c2cccc(OC)c12` (centres unmarked) [Compound 95], the mortality at 300 ppm in experiment [1] and in experiment [2] was greater than 86% throughout.
Take `COc1ccc(F)c2c1C(N(C)CC#N)=NS2(=O)=O` [Compound 96]: the mortality at 300 ppm in experiment [1] and in experiment [2] was greater than 86% in each case.
`CC(C)N(O)C1=NS(=O)(=O)c2cccc(Cl)c21` [Compound 98]: the mortality at 300 ppm in experiment [1] and in experiment [2] was greater than 86% throughout.
Turning to `CCC(C)N(O)C1=NS(=O)(=O)c2cccc(Cl)c21` (centres unmarked) [Compound 99], in experiment [2], the mortality at 300 ppm was greater than 86%.
Consider `CON(C)C1=NS(=O)(=O)c2cccc(F)c21` [Compound 100], for which the mortality at 300 ppm in experiment [2] is greater than 86%.
With `CC(C)ON(C1=NS(=O)(=O)c2cccc(Cl)c21)C(C)C` [Compound 101], the mortality at 300 ppm in experiment [2] is greater than 86%.
Still for that read-out and setting: to `CC(C)ON(C)C1=NS(=O)(=O)c2cccc(Cl)c21` [Compound 102] belongs greater than 86%; to `C#CCON(C)C1=NS(=O)(=O)c2cccc(Cl)c21` [Compound 103], greater than 86%.
Regarding `O=S1(=O)N=C(N(O)Cc2ccccc2)c2c(Cl)cccc21` [Compound 104], in experiment [2], the mortality at 300 ppm is greater than 86%.
In the case of `C#CCON(C1=NS(=O)(=O)c2cccc(Cl)c21)C(C)C` [Compound 105], in experiment [2], the mortality at 300 ppm is greater than 86%.
Same read-out and setting: in the case of `CCON(CC)C1=NS(=O)(=O)c2cccc(Cl)c21` [Compound 106] it was greater than 86%; in that of `C#CCN(OCC)C1=NS(=O)(=O)c2cccc(Cl)c21` [Compound 107], greater than 86%.
With `COc1ccc(F)c2c1C(N(C)OC)=NS2(=O)=O` [Compound 108], the mortality at 300 ppm in experiment [1] and in experiment [2] was greater than 86% throughout.
For the compound `CON(C)C1=NS(=O)(=O)c2cccc(OC(F)F)c21` [Compound 109], the mortality at 300 ppm in experiment [1] and in experiment [2] was greater than 86% throughout.
For the compound `CCON(C)C1=NS(=O)(=O)c2cccc(OC(F)F)c21` [Compound 110], the mortality at 300 ppm in experiment [1] and in experiment [2] was greater than 86% in each case.
For `CCON(C1=NS(=O)(=O)c2cccc(OC(F)F)c21)C(C)C` [Compound 111], the mortality at 300 ppm in experiment [1] and in experiment [2] was greater than 86% in each case.
For the compound `CCON(CC)C1=NS(=O)(=O)c2cccc(OC(F)F)c21` [Compound 112], the mortality at 300 ppm in experiment [1] and in experiment [2] was greater than 86% throughout.

As usually defined, the mortality is the percentage killed.
